Measured values from the Biogen ADME set (Fang et al. 2023).
≈ marks a conversion by molar mass, not a printed value.

Settings: for aqueous solubility: pH 6.8

MDR1-MDCK efflux ratio | intrinsic clearance, human liver microsomes [mL/min/kg] | intrinsic clearance, rat liver microsomes [mL/min/kg] | aqueous solubility [µg/mL] | fraction unbound, human plasma | fraction unbound, rat plasma | Structure (SMILES)
61.4 | 129 | 107 | 48.2 | – | – | CCN1CCN(Cc2ccc(Nc3ncc(F)c(-c4cc(F)c5nc(C)n(C(C)C)c5c4)n3)nc2)CC1.CS(=O)(=O)O
0.335 | 34.9 | 628 | – | – | – | COc1cc(OC)cc(C(=O)NCc2noc(-c3ccccc3)n2)c1
1.94 | 5.4 | 52.6 | 55.8 (≈ 160 µM) | – | – | O=C(C1CCCN(Cc2cc3c(cc2O)OCO3)C1)N1CCOCC1 (configuration not stated)
– | 10.8 | 80.8 | – | – | – | c1csc(Cc2nc(-c3cnccn3)no2)c1
– | – | – | 1.88 (≈ 5.12 µM) | – | – | CC1=C(C(=O)OCc2ccc3c(c2)OCO3)C(c2ccccc2)NC(=O)N1 (configuration not stated)
37.8 | 8.04 | 96.9 | – | – | – | CC(=O)N1CCN([C@H]2CCN(C(=O)c3cc4cc(Cl)ccc4o3)CC[C@@H]2O)CC1
0.969 | – | – | 0.38 (≈ 1.07 µM) | – | – | O=c1c2cc(OCc3ccc(Cl)cc3)ccc2nc2n1CCCCC2
0.787 | 114 | 448 | 38.9 (≈ 114 µM) | – | – | CCN1CCc2ncnc(N(C)Cc3ccc4c(c3)OCCO4)c2C1
0.756 | 8.2 | 40 | 62.8 (≈ 215 µM) | – | – | Cc1cc(C)c(NC(=O)c2cc(Cl)ccc2F)c(C)n1
0.701 | 66.5 | 7100 | – | – | – | c1ccc(NCc2ccc3c(c2)OCCCO3)nc1
0.972 | ≤ 4.74 | 74.3 | – | – | – | Cc1cccc(C)c1CNC1(CCO)CCOCC1
– | ≤ 4.74 | 31.2 | 21.9 (≈ 109 µM) | – | – | Cc1cc(Oc2cnccn2)ccc1N
3.86 | ≤ 4.74 | 45 | 50.7 (≈ 193 µM) | – | – | Cc1cc(NC(=O)CCc2c(C)nn(C)c2C)no1
8.01 | 32.7 | 238 | 60.8 (≈ 165 µM) | – | – | CC(C)c1nc2c(n1C)CCN(C(=O)c1cccc(C(F)(F)F)c1F)C2
0.646 | 293 | 1260 | – | – | – | CCOC(=O)c1cccnc1SCc1cccnc1
23.9 | 18.9 | 131 | 52.1 (≈ 169 µM) | – | – | O=C(NC[C@H]1COCc2nc3ccccc3n21)c1ccncc1
1.43 | ≤ 4.74 | ≤ 10.7 | – | – | – | COC[C@@H](O)Cn1c(C)nc2ccccc21
18.6 | 357 | 1170 | 46.5 (≈ 109 µM) | – | – | Cc1[nH]c2ccc(Cl)cc2c1CC(=O)N1CCC(Cc2ncncc2C(N)=O)CC1
– | ≤ 4.74 | ≤ 10.7 | 50.6 (≈ 204 µM) | – | – | CC(=O)N1CCC(c2ccc(C(=O)O)cn2)CC1
13.6 | ≤ 4.74 | 76.8 | – | – | – | COc1cccc(Oc2ccc(NC(=O)CN3CCCCC3=O)cn2)c1
8.79 | ≤ 4.74 | 21.9 | 58.5 (≈ 221 µM) | – | – | O=C(CC1CCNCC1)NCCc1ccccc1F
4.15 | 104 | 1290 | – | – | – | CCc1c(C(=O)N2CC[C@@](O)(CC(C)C)[C@@H](Oc3ccc(F)cc3)C2)[nH]c2ccc(C)cc12
2.57 | 120 | 1410 | 35.7 (≈ 111 µM) | – | – | O=C(CSc1ncn[nH]1)N(C1CCCCC1)C1CCCCC1
0.809 | ≤ 4.74 | 11.4 | 52 (≈ 217 µM) | – | – | O=C(O)CCn1c2ccccc2c2ccccc21
0.338 | 27.2 | 190 | – | – | – | O=C(Nc1ccc(N2CCCC2)cn1)c1ccc(-c2cnco2)cc1
1.32 | 14.3 | 239 | 29.3 (≈ 118 µM) | – | – | CCCCn1nc(-c2ccc(C)o2)nc1CNC
28.3 | ≤ 4.74 | ≤ 10.7 | 47.5 (≈ 178 µM) | – | – | Cc1cc(C)n(CCNC(=O)NC2CCOCC2)n1
1.9 | ≤ 4.74 | 91.4 | – | – | – | c1cc(-c2nnc(NCc3cncs3)o2)ccn1

MDR1-MDCK efflux ratio | intrinsic clearance, human liver microsomes [mL/min/kg] | intrinsic clearance, rat liver microsomes [mL/min/kg] | aqueous solubility [µg/mL] | fraction unbound, human plasma | fraction unbound, rat plasma | Structure (SMILES)
1.3 | ≤ 4.74 | ≤ 10.7 | 31.2 (≈ 143 µM) | – | – | Cc1nnc(N2CC[C@H](O)C2)c(C#N)c1C
0.746 | 108 | 642 | 3.11 (≈ 12.6 µM) | – | – | CN(C)c1nc(N)nc(Sc2ccccc2)n1
– | 12.2 | 53.6 | 9.14 (≈ 28.2 µM) | – | – | CCOc1cccc(C(=O)Nc2ccc3c(c2)CCC(=O)N3C)c1
0.419 | 201 | 620 | 38.2 (≈ 177 µM) | – | – | Cc1csc(Nc2ccc(C#N)cc2)n1
5.22 | 35.9 | 554 | – | 0.374 | 0.359 | CC1CN(C(=O)c2cccnc2N2CCOCC2)CC(c2ccccc2)O1 (configuration not stated)
– | 91.5 | 416 | – | – | – | N#Cc1cccc(NCc2ccc(-c3cccnc3)o2)c1
1.12 | 34.2 | 287 | – | – | – | CCc1cc(=O)[nH]c(SCCCCC2CCOCC2)n1
52 | 198 | 734 | – | – | – | Cc1cc(C(F)(F)F)nc(CCNC(=O)N(C)Cc2ccncc2C)n1
10.7 | 20 | 2940 | 4.89 (≈ 12.7 µM) | – | – | O=S(=O)(Nc1cccc(-c2nc3ccccc3[nH]2)c1)c1ccc(Cl)cc1
0.796 | 120 | 967 | 30.5 (≈ 76.9 µM) | – | – | O=C(CN1CCCN(c2ccc(C(F)(F)F)cn2)CC1)Nc1cccc(F)c1
– | 13 | 36.1 | – | – | – | NCc1ccc(-n2cnc3ccccc32)cc1Cl
0.499 | 113 | 1540 | 3.63 (≈ 12.4 µM) | – | – | O=C(Cc1ccc2c(c1)CCC2)Nc1nc2ccccc2o1
0.827 | 9.28 | 148 | 49.1 (≈ 171 µM) | – | – | CCc1cc(NCc2cccc(OCCOC)c2)ncn1
– | 6 | 14.1 | – | – | – | Cc1nc(C2CCN(Cc3ccc(C(F)(F)F)cc3)CC2)n[nH]1
2.2 | 50.9 | 1070 | – | – | – | COc1ccc(OCc2n[nH]c(-c3n[nH]c4c3CCC4)n2)cc1
0.966 | 13.4 | 463 | 27.2 (≈ 108 µM) | – | – | Nc1nc2ccccc2n1CCCc1ccccc1
1.31 | ≤ 4.74 | ≤ 10.7 | 54.4 (≈ 203 µM) | – | – | O=C1CCCN1c1ccc(NCc2ccccn2)nc1
0.654 | 16.7 | 47 | 39.7 (≈ 154 µM) | – | – | Clc1ccc2c(Oc3cccnc3)ncnc2c1
1.75 | 24.2 | 1280 | – | – | – | NS(=O)(=O)N1CCN(Cc2c(F)cccc2N2CCCC2)CC1
0.771 | ≤ 4.74 | ≤ 10.7 | 36 (≈ 147 µM) | – | – | Cc1cnn(Cc2nc(Cn3cccn3)no2)c1
– | 28.1 | 141 | 1.9 (≈ 3.72 µM) | – | – | CNC(=O)c1ccc(Nc2ncc(C(F)(F)F)c(NCc3nccnc3N(C)S(C)(=O)=O)n2)cc1
0.786 | ≤ 4.74 | 111 | – | – | – | CC(C)c1nnc(NCc2cc(F)cc(F)c2)o1
– | ≤ 4.74 | 90.1 | – | – | – | Cc1ccc(=O)n(CC2(O)CCN(Cc3ccc4ccccc4n3)CC2)n1
28.9 | 40.9 | 674 | – | – | – | CCN(CC(N)=O)CC(=O)N1c2ccccc2CCc2ccccc21
– | – | – | 12.9 (≈ 32.8 µM) | – | – | CC1(C)CC(Oc2ccc(-c3ccc(-c4cn[nH]c4)cc3O)nn2)CC(C)(C)N1
1.22 | 43 | 217 | 51.3 (≈ 143 µM) | 0.0136 | 0.0421 | CC(=O)N1CCN(c2nc(C(F)(F)F)nc3sc(C)c(C)c23)CC1
17.3 | ≤ 4.74 | ≤ 10.7 | 54.2 (≈ 211 µM) | – | – | Cn1cncc1-c1ncccc1C(=O)N1CCCC1

Structure (SMILES) | MDR1-MDCK efflux ratio | intrinsic clearance, human liver microsomes [mL/min/kg] | intrinsic clearance, rat liver microsomes [mL/min/kg] | aqueous solubility [µg/mL] | fraction unbound, human plasma | fraction unbound, rat plasma
O=C1C(N2CCC(n3c(=O)[nH]c4ccccc43)CC2)CCN1c1ccccc1 (configuration not stated) | – | 4.86 | 139 | 62 (≈ 165 µM) | – | –
O=c1[nH]c2ccccc2n1C1CCN(Cc2nc(-c3ccsc3)no2)CC1 | 3.73 | 16.3 | 263 | 5.8 (≈ 15.2 µM) | – | –
